Assays:
Assay type in all cases: cell-based, canine
catalase (CAT) [1] = test: Enzymatic activity of catalase in treated cbTCC cells (Cayman kit, Purpald); conditions: 24 hours, mean ± standard deviation, control 11.20 ± 0.43
Description: Treatments were done in at least triplicates. […] The enzymatic activity of catalase was determined using assay kits from Cayman Chemical Co., Ann Arbor, Mich., according to manufacturer's directions. The assay utilized the peroxidatic function of CAT for determination of enzymatic activity, based on the reaction of the enzyme with methanol in the presence of an optimal concentration of H2O2. […] Purpald specifically forms a bicyclic heterocycle with aldehydes, which upon oxidation changes from colorless to a purple color. The absorbance was read at 540 nm using a spectrophotometric plate reader. Results were calculated from standard curve from known samples and by using the provided equations. From that, the enzymatic activity of CAT was derived as nmol/min/ml CAT. Samples were done in triplicate. A one-tail t-test assuming equal variance was performed to determine significance.

CAT = test: Quantitative PCR gene expression of CAT in cbTCC cells; conditions: 24 hours, normalized to Cyclophilin A, mean ± SEM, control 1.86 ± 0.11
Cu/ZnSOD = test: Quantitative PCR gene expression of Cu/ZnSOD in cbTCC cells; conditions: 24 hours, normalized to Cyclophilin A, mean ± SEM, control 1.11 ± 0.02
MnSOD = test: Quantitative PCR gene expression of MnSOD in cbTCC cells; conditions: 24 hours, normalized to Cyclophilin A, mean ± SEM, control 1.28 ± 0.05
PTHrP = test: Quantitative PCR gene expression of PTHrP in cbTCC cells; conditions: 24 hours, normalized to Cyclophilin A, mean ± SEM, control 1.35 ± 0.09
catalase (CAT) [2] = test: Western blot analysis of catalase protein expression in cbTCC cells; conditions: 10^−9M, 24 hours, normalized to β-actin, control = 100 percent, ± standard deviation
Description: (§1) Treatments were done in at least triplicates. […] Harvested cells were homogenized, and analyzed for the production of manganese superoxide dismutase (MnSOD), copper/zinc superoxide dismutase (Cu/ZnSOD), catalase (CAT), and glutathione peroxidase (GPX). Cell lysates were collected after centrifugation, and total protein was quantitated. […] Transblotted membranes were blocked overnight at 4° C. with the addition of 5% skim milk in Tris-buffered saline (TBS). The membranes were cut at the molecular weight of 37 kD (green band) and 25 kD (pink band). The top part of the membranes were stained for CAT, GPX, and β-actin, and the bottom part for MnSOD and Cu/ZnSOD. The primary antibodies for specific proteins were used at the following dilutions: […] Secondary antibodies are their respective IgG-HRP conjugates used at 1:2000. […] CAT, MnSOD and Cu/ZnSOD, n=7; GPX, n=4. Prior to transforming data as percent of control, a one-tail paired t-test assuming equal variance was performed to determine significance.

[3] = tested on: manganese superoxide dismutase (MnSOD); test: Western blot analysis of MnSOD protein expression in cbTCC cells; conditions: 10^−9M, 24 hours, normalized to β-actin, control = 100 percent, ± standard deviation
Description: as §1

[4] = tested on: copper/zinc superoxide dismutase (Cu/ZnSOD); test: Western blot analysis of Cu/ZnSOD protein expression in cbTCC cells; conditions: 10^−9M, 24 hours, normalized to β-actin, control = 100 percent, ± standard deviation
Description: as §1

[5] = tested on: glutathione peroxidase (GPX); test: Western blot analysis of GPX protein expression in cbTCC cells; conditions: 10^−9M, 24 hours, normalized to β-actin, control = 100 percent, ± standard deviation
Description: as §1

VDR = test: Quantitative PCR gene expression of VDR in cbTCC cells; conditions: 24 hours, normalized to Cyclophilin A, mean ± SEM, control 2.09 ± 0.19

Row | Compound | Enzymatic activity of catalase (catalase (CAT) [1]; 10^−9M) [nmol/min/mL] | Enzymatic activity of catalase (catalase (CAT) [1]; 10^−7M) [nmol/min/mL] | CAT gene expression value by quantitative PCR (CAT; 10^−7 M) | CAT gene expression value by quantitative PCR (CAT; 10^−9 M) | Cu/ZnSOD gene expression value by quantitative PCR (Cu/ZnSOD; 10^−7 M) | Cu/ZnSOD gene expression value by quantitative PCR (Cu/ZnSOD; 10^−9 M) | MnSOD gene expression value by quantitative PCR (MnSOD; 10^−7 M) | MnSOD gene expression value by quantitative PCR (MnSOD; 10^−9 M) | PTHrP gene expression value by quantitative PCR (PTHrP; 10^−7 M) | PTHrP gene expression value by quantitative PCR (PTHrP; 10^−9 M) | Catalase protein expression, percent intensity of the protein band relative to the control (catalase (CAT) [2]) [%] | MnSOD protein expression, percent intensity of the protein band relative to the control [3] [%] | Cu/ZnSOD protein expression, percent intensity of the protein band relative to the control [4] [%] | GPX protein expression, percent intensity of the protein band relative to the control [5] [%] | VDR gene expression value by quantitative PCR (VDR; 10^−7 M) | VDR gene expression value by quantitative PCR (VDR; 10^−9 M)
1 | C=C1C(=CC=C2CCCC3(C)C(C(C)CC#CC(C)(C)O)=CCC23)CC(O)CC1O (stereo not drawn) [Analog V, 1α,25-dihydroxy-16-ene-23-yne-vitamin D3] | 13.93 ± 0.53 | – | – | – | – | – | – | – | – | – | – | – | – | – | – | –
2 | C=C1/C(=C\C=C2/CCC[C@]3(C)[C@@H]([C@H](C)CCCC(C)(C)O)CC[C@@H]23)C[C@@H](O)C[C@@H]1O [Calcitriol, 1α,25-dihydroxyvitamin D3] | 12.51 ± 0.42 | 12.24 ± 0.80 | 2.60 ± 0.11 | 2.13 ± 0.06 | 1.18 ± 0.03 | 1.16 ± 0.02 | 1.05 ± 0.03 | 1.15 ± 0.04 | 1.16 ± 0.05 | 1.36 ± 0.11 | – | – | – | – | – | –
3 | C=C1/C(=C\C=C2/CCC[C@]3(C)[C@@H]([C@H](C)/C=C/C=C/C(O)(CC)CC)CC[C@@H]23)C[C@@H](O)C[C@@H]1O [Seocalcitol, 1α,25-dihydroxy-22,24-diene-24,26,27-trihomovitamin D] | 13.99 ± 0.99 | – | 2.66 ± 0.08 | 2.55 ± 0.13 | 1.17 ± 0.01 | 1.20 ± 0.07 | 1.11 ± 0.05 | 1.16 ± 0.05 | 1.20 ± 0.07 | 1.30 ± 0.02 | 162.68 ± 39.88 | 113.48 ± 20.56 | 101.27 ± 26.41 | 81.85 ± 37.45 | 1.99 ± 0.09 | 1.45 ± 0.10

From patent publication US20130178450A1, “METHODS FOR INCREASING THE PRODUCTION OR ACTIVITY OF CATALASE” (Nestec SA, priority 2010, published 2013)
